In article PMC10332405 (European journal of medicinal chemistry, 2023):

Legend:
[1] = test system: HIV-1-SLK; assay: Antiviral assay with resistant HIV-1 variant SLK; format: cell-based; conditions: read-out: Antiviral EC50, HIV-1-SLK; multi-PI resistant recombinant virus
[2] = test system: human T-cell lymphotropic virus type 1 (HTLV-1) protease; conditions: cited from earlier work
[3] = target: HIV-1 protease I50V/A71V (Human immunodeficiency virus type 1 group M subtype B, UniProt P12497, A559V/I538V/Q495K); assay: biochemical
[4] = target: HIV-1 protease I84V (Human immunodeficiency virus type 1 group M subtype B, UniProt P12497, I572V/Q495K); assay: biochemical

CCOP(=O)(COc1ccc(C[C@H](NC(=O)O[C@H]2CO[C@H]3OCC[C@H]32)[C@H](O)CN(CC(CC)CC)S(=O)(=O)c2ccc(OC)cc2)cc1)OCC [PU7, (3R,3aS,6aR)-Hexahydrofuro[2,3-b]furan-3-yl ((2S,3R)-1-(4-((diethoxyphosphoryl)methoxy)phenyl)-4-((N-(2-ethylbutyl)-4-methoxyphenyl)sulfonamido)-3-hydroxybutan-2-yl)carbamate]
EC50 [1]: < 10 nM

CCOP(=O)(COc1ccc(C[C@H](NC(=O)O[C@H]2CO[C@H]3OCC[C@H]32)[C@H](O)CN(CC(CC)CC)S(=O)(=O)c2ccc(N)cc2)cc1)OCC [PU6, (3R,3aS,6aR)-Hexahydrofuro[2,3-b]furan-3-yl ((2S,3R)-4-((4-amino-N-(2-ethylbutyl)phenyl)sulfonamido)-1-(4-((diethoxyphosphoryl)methoxy)phenyl)-3-hydroxybutan-2-yl)carbamate]
Inhibition of HTLV-1 protease [2]: potent inhibitor

CCOP(=O)(COc1ccc(C[C@H](NC(=O)O[C@H]2CO[C@H]3OCC[C@H]32)[C@H](O)CN(CC(CC)CC)S(=O)(=O)c2ccc3c(c2)OCO3)cc1)OCC [PU9, (3R,3aS,6aR)-Hexahydrofuro[2,3-b]furan-3-yl ((2S,3R)-1-(4-((diethoxyphosphoryl)methoxy)phenyl)-4-(N-(2-ethylbutyl)benzo[d][1,3]dioxole-5-sulfonamido)-3-hydroxybutan-2-yl)carbamate]
EC50 [1]: < 10 nM

CCOP(=O)(COc1ccc(C[C@H](NC(=O)O[C@H]2CO[C@H]3OCC[C@H]32)[C@H](O)CN(CC(C)C)S(=O)(=O)c2ccc(OC)cc2)cc1)OCC [GS-8374]
Ki [3]: < 5 pM | Ki [4]: < 5 pM
